{"source": "patent US11311543B2", "about": "“Compositions and methods for inhibiting PTPN22” (YALE UNIVERSITY, priority 2016, dated 2022)", "key": {"[1]": {"test_system": "LYN", "assay": "Phosphorylation kinetics of LYN in RAMOS cells after BCR triggering (immunoblot)", "assay_type": "cell-based, human", "conditions": "LTV-1 5 μg/mL", "procedure": "(§1) FIG. 40A depicts the phosphorylation of SHIP1, Lyn and ERK1/2 in total cell lysates of Ramos B cells treated or not with the PTPN22 inhibitor LTV-1 (5 μg/mL) for the indicated times. The cells were subjected to immunoblot analysis of P-LYN P-SHIP1, P-ERK1/2, and β-ACTIN. FIG. 40B depicts flow cytometry analysis of calcium flux of Ramos B cells treated or not with the PTPN22 inhibitor LTV-1 (5 μg/mL) for the indicated times followed by stimulation with anti-IgM F(ab′)2 at the indicated concentrations. FIG. 40C depicts flow cytometry analysis of calcium flux of splenocyte cells treated or not with LTV-1 (0.75 mg) twice daily for 7 days and stimulated with anti-IgM F(ab′)2 (25 μg/mL). FIG. 40D depicts flow cytometry analysis of calcium flux of splenocyte expressing PTPN22 shRNA and stimulated with anti-IgM F(ab′)2 (25 μg/mL).\n(§2) However, downstream ERK phosphorylation was not affected by PTPN22 inhibition (FIG. 40A). Since PTPN22 inhibition enhanced TCR signaling in Jurkat cell line, it was investigated if PTPN22 blockade may also increase BCR signaling and calcium flux induced by BCR triggering was measured in RAMOS cells in the presence or not of LTV-1. Calcium flux was increased by PTPN22 inhibition, especially at lower concentration of BCR triggering agent (FIG. 40B). […]"}, "[2]": {"test_system": "SHIP1", "assay": "Phosphorylation kinetics of SHIP1 in RAMOS cells after BCR triggering (immunoblot)", "assay_type": "cell-based, human", "conditions": "LTV-1 5 μg/mL", "procedure": "as §1, §2"}, "[3]": {"test_system": "RAMOS cells", "assay": "Calcium flux induced by BCR triggering in RAMOS cells (flow cytometry)", "assay_type": "cell-based, human", "conditions": "LTV-1 5 μg/mL, anti-IgM F(ab′)2, especially at lower concentration of BCR triggering agent", "procedure": "as §1, §2"}, "[4]": {"test_system": "mature naive B cells", "assay": "Peripheral B cell tolerance checkpoint in NSG+thymus mouse carrying the 1858T PTPN22 allele", "assay_type": "in vivo, NSG mouse engrafted with human fetal HSCs and thymic tissue", "conditions": "LTV-1 0.75 mg twice daily for a month", "procedure": "FIG. 41A depicts a schematic diagram depicting the LTV-1 PTPN22 inhibitor treatment strategy. A NSG+thymus mouse generated with CD34^+ HSCs and thymic graft carrying the 1858T PTPN22 allele was injected twice daily with 0.75 mg of PTPN22 inhibitor for four weeks. FIG. 41B depicts the frequencies of HEp-2 reactive mature naive B cells from NSG+thymus mice treated or not with the PTPN22 inhibitor were determined. […] For each B cell fraction, the frequency of reactive (filled area) and non-reactive (open area) clones is summarized in pie charts with the total number of clones tested indicated in the center. In summarized reactivity panels on the right, each symbol represents either a subject or a humanized mouse. Averages are shown with a bar. Statistically significant differences are indicated ****P≤0.0001, ***P≤0.001. FIG. 41C depicts the frequencies of polyreactive mature naive B cells from NSG+thymus mice treated or not with the PTPN22 inhibitor were determined. […] For each B cell fraction, the frequency of reactive (filled area) and non-reactive (open area) clones is summarized in pie charts with the total number of clones tested indicated in the center. In summarized reactivity panels on the right, each symbol represents either a subject or a humanized mouse. Averages are shown with a bar. Statistically significant differences are indicated ****P≤0.0001, ***P≤0.001. […]"}, "[5]": {"test_system": "PTPN22", "assay": "PTPN22 expression by western blot in shRNA-transduced RAMOS B cell line", "assay_type": "cell-based", "conditions": "human RAMOS B cell line, GFP+ shRNA+ vs GFP-", "procedure": "FIG. 10A depicts flow cytometry analysis of Ramos B cells transduction efficiency. Ramos B cells were transduced with three different GFP-tagged shRNA PTPN22 expressing lentiviruses and probed for GFP expression. […] Percentage of knock-down is indicated. FIG. 10B depicts the frequencies of polyreactive new emigrant B cells from sorted GFP− fractions were determined. […] For each B-cell fraction, the frequency of reactive (filled area) and non-reactive (open area) clones is summarized in pie charts with the total number of clones tested indicated in the center. FIG. 10C depicts the frequencies of HEp-2 reactive new emigrant B cells from sorted GFP− fractions were determined. […] For each B-cell fraction, the frequency of reactive (filled area) and non-reactive (open area) clones is summarized in pie charts with the total number of clones tested indicated in the center. FIG. 10D depicts the frequencies of antinuclear new emigrant B cells are compared between GFP− and GFP+ shRNA+ new emigrant B cells. […]\nTotal cell lysates were separated by SDS page, transferred to PVDF membranes, probed with mouse anti-PTPN22 (Invitrogen) and detected by chemiluminescence (Amersham ECL Prime Western Blotting detection Reagent) using a GBox documentation system (Syngene). For quantification, blots were stripped with stripping buffer (Pierce) and reprobed with a mouse anti-β-Actin antibody (Sigma-Aldrich)."}}}
{"molecule": "Cc1ccccc1N1C(=O)/C(=C/c2ccc(OCc3cccc(C(=O)O)c3)cc2)C(=O)NC1=S", "note": "[LTV-1]", "values": [{"measurement": "phosphorylation of LYN at position Y396", "setting": "[1]", "result": "decreases"}, {"measurement": "phosphorylation of SHIP1 at position Y2010", "setting": "[2]", "result": "decreases"}, {"measurement": "calcium flux induced by BCR triggering", "setting": "[3]", "result": "increased"}, {"measurement": "impaired peripheral B cell tolerance checkpoint (autoreactive mature naive B cells)", "setting": "[4]", "result": "effectively restored"}]}
{"molecule": "shRNA #1: shRNA targeting human PTPN22, 5′-CTAGTGCTCTTGGTGTATATT-3′, delivered by GFP-tagged lentivirus", "values": [{"measurement": "inhibition of PTPN22 expression detected by western blot", "setting": "[5]", "result": "about 80%"}]}
